# Assay: method code SF-HPLC, from DOI: 10.1016/0378-5173(94)00315-v
# Settings: pH 1.0
row,logD,Compound
1,2.82,COc1ccc2cc(CC(=O)O)ccc2c1

# Same assay, conditions: pH 7.4
row,logD,Compound
1,1.58,COc1ccc2cc(CC(=O)OCC(=O)N(C)CCO)ccc2c1
2,1.41,COc1ccc2cc(CC(=O)OCC(=O)N(CCO)CCO)ccc2c1
3,4.04,CCCN(CCC)C(=O)COC(=O)Cc1ccc2cc(OC)ccc2c1
4,2.19,CNC(=O)COC(=O)Cc1ccc2cc(OC)ccc2c1
5,2.23,COc1ccc2cc(CC(=O)OCC(=O)N(C)C)ccc2c1
6,3.05,CCN(CC)C(=O)COC(=O)Cc1ccc2cc(OC)ccc2c1
7,1.98,CCN(CCO)C(=O)COC(=O)Cc1ccc2cc(OC)ccc2c1

# Further lines, the compound ahead of its results:
row,Compound,logD
1,COc1ccc2cc(CC(=O)OCC(=O)NC3CCCCC3)ccc2c1,3.99
2,CCNC(=O)COC(=O)Cc1ccc2cc(OC)ccc2c1,2.65
3,COc1ccc2cc(CC(=O)OCC(=O)N3CCOCC3)ccc2c1,2.13
4,COc1ccc2cc(CC(=O)OCC(=O)N3CCCC3)ccc2c1,2.71
5,CCCCNC(=O)COC(=O)Cc1ccc2cc(OC)ccc2c1,3.57
6,COc1ccc2cc(CC(=O)OCC(=O)NC(C)C)ccc2c1,2.89
7,COc1ccc2cc(CC(=O)OCC(=O)NC(C)(C)C)ccc2c1,3.6
8,COc1ccc2cc(CC(=O)OCC(N)=O)ccc2c1,1.88
9,CCCNC(=O)COC(=O)Cc1ccc2cc(OC)ccc2c1,3.1
10,CCC(C)NC(=O)COC(=O)Cc1ccc2cc(OC)ccc2c1 (centres undefined),3.31
11,C=CCN(CC=C)C(=O)COC(=O)Cc1ccc2cc(OC)ccc2c1,3.67

# — the SangsterLogP compilation
